Here are results for two compounds from patent publication US12252457B2, “Compositions and methods for reducing tactile dysfunction, anxiety, and social impairment” (President and Fellows of Harvard College, priority 2018, dated 2025).

Several values for one entry are separate records, joined by “and”; a condition that tells them apart may be missing. Equal entries are not always repeated. Structures can show the parent of a compound that is named as a salt.

In one experiment the test system is SNL rats. Nature of the experiment: Rat spinal nerve ligation (SNL) model of neuropathic pain, Von Frey 50% paw withdrawal threshold. Type of experiment: in vivo, SD Rat. Particulars: for 50% g Threshold, individual animals: 5 mg/kg; for neuropathic pain sensitivity / mechanical hypersensitivity (mechanical allodynia): SNL rats, Von Frey stimulation of hindpaw glabrous skin; for 50% g Threshold, group Mean: n=8. Here is the method: Chung surgery were conducted on anesthetized rats. Rats were habituated in the testing environment for 15 minutes before allodynia measurement (2-3 times). Pre-dose baseline were taken on day 9 post surgery. Rats that don't show allodynic response at this point were excluded. SNL rats with a paw withdrawal threshold >4 g. The animals were grouped according to 50% paw withdrawal threshold (g) and weight. The animals were dosed test articles and vehicle according to the dose protocol. On the testing day (Day 9), rats were dosed with testing articles with 16 min interval between groups. Rats were measured for allodynic response at 0.75, 1.5, 3 h time point post dosing. All values will be expressed as mean±S.E.M. The significance of the differences among groups will be evaluated by two-way ANOVA followed by Dunnett's test using graphpad Prism 6 software. A p value of less than 0.05 is considered statistically significant.

The subject of experiment [1] is large diameter neurons cultured from DRGs of Mecp2 and Shank3 mutant mice. The experiment is described as follows: Whole cell patch-clamp recordings of cultured DRG neurons. The experiment is classed as cell-based, mouse. Particulars: 10 μM isoguvacine. Here is the method:
FIGS. 27A-27K are related to FIGS. 19A-19N. FIGS. 27A-27B: Representative traces from large diameter neurons cultured from DRGs of control (FIG. 27A) and Mecp2^STOP/y (FIG. 27B) mice during whole cell current clamp recordings, in which the minimal amount of current required to elicit an action potential in each neuron (rheobase, Rh), was determined in the absence or presence of 10 μm isoguvacine. FIG. 27C: Quantification of average Rh in large diameter neurons cultured from DRGs of control mice during a baseline period and then in presence of 10 μm isoguvacine. Repeated measures one-way ANOVA, post-hoc Tukey's test, *, p<0.05. FIG. 27D: Quantification of average Rh in large diameter neurons cultured from DRGs of control mice during a baseline period, followed application of 10 μm isoguvacine, then washout period. […] FIG. 27E: Quantification of average Rh in large diameter neurons cultured from DRGs of control and Mecp2^STOP/y mice during a baseline period and then in presence of 10 μm isoguvacine. […] FIG. 27F: Quantification of average Rh in large diameter neurons cultured from DRGs of control and Shank3B^+/− mice during a baseline period and then in presence of 10 μm isoguvacine. […] FIG. 27G: Quantification of total Ih density at each hyperpolarizing voltage step for large diameter neurons cultured from DRGs of control, Mecp2^STOP/y and Shank3B^+/− mutant mice. […]
Background: Patch clamp records ionic current or voltage across a cell membrane.

Setting [2] is: 0 Hour (pre-dose baseline), 5 mpk IP.
Where [3] appears, read: printed in the 0.75 Hour column, 5 mpk IP.
[4] abbreviates: printed in the 1.5 Hour column, 5 mpk IP.
Where [5] appears, read: printed in the 3 Hour column, 5 mpk IP.

For `NC1C=C(C(=O)O)CCC1` (centres unmarked) [Compound 5, 3-aminocyclohex-1-enecarboxylic acid hydrochloride], the “Von frey test (MEAN ± S.E.M.)” value was 2.3 ± 0.34 g in the experiment on SNL rats (setting [2]); 3.6 ± 0.54 g in the experiment on SNL rats (0.75 Hour, 5 mpk IP); 4.1 ± 0.70 g with SNL rats (1.5 Hour, 5 mpk IP); 4.0 ± 0.79 g in the experiment with SNL rats (3 Hour, 5 mpk IP). For the same compound, the “50% g Threshold, individual animals” value in the experiment on SNL rats (0 Hour (pre-dose baseline, day 9 post surgery), 5 mpk IP, hydrochloride) is 0.99 g and 1.10 g and 1.56 g and 2.64 g and 2.81 g (2×) and 3.31 g (2×); in the experiment on SNL rats (0.75 Hour post dosing, 5 mpk IP, hydrochloride), 3.33 g and 4.12 g and 2.81 g and 1.85 g and 4.34 g and 3.31 g and 2.37 g and 6.74 g; with SNL rats (1.5 Hour post dosing, 5 mpk IP, hydrochloride), 6.74 g (2×) and 5.10 g and 1.85 g and 3.71 g (2×) and 3.31 g and 1.56 g; in the experiment on SNL rats (3 Hour post dosing, 5 mpk IP, hydrochloride) it was 6.42 g and 3.33 g and 2.81 g and 2.61 g and 3.71 g and 4.34 g and 0.82 g and 7.91 g. The “neuropathic pain sensitivity / mechanical hypersensitivity (mechanical allodynia)” value in the experiment with SNL rats (hydrochloride) is reported as “reduce tactile over-reactivity (mechanical allodynia)”; in the experiment with SNL rats (listed as compound 5, hydrochloride) it was “reduce neuropathic pain sensitivity”. The figures for the “50% g Threshold, group Mean” value in the experiment on SNL rats (setting [3]), in the experiment with SNL rats (setting [4]) and with SNL rats (setting [5]) were 2.31 g, 3.61 g and 4.09 g, respectively.
In the case of `O=C(O)C1=CCNCC1` [Isoguvacine, isoguvacine], in experiment [1] (large diameter DRG neurons), the Ih result was “without affecting Ih”. Also, the “hyperexcitability phenotype (rheobase) of large diameter DRG neurons” value in experiment [1] (neurons from Mecp2 and Shank3 mutant mice) is on record as “reduced the hyperexcitability phenotype”. For the same compound, the “Von frey test (MEAN ± S.E.M.)” value is 2.3 ± 0.33 g in the experiment with SNL rats (setting [2]); 1.8 ± 0.23 g in the experiment with SNL rats (0.75 Hour, 5 mpk IP); 2.0 ± 0.23 g with SNL rats (1.5 Hour, 5 mpk IP); 4.9 ± 0.64 g with SNL rats (3 Hour, 5 mpk IP). Besides, the “50% g Threshold, individual animals” value in the experiment on SNL rats (0 Hour (pre-dose baseline, day 9 post surgery), 5 mpk IP) is 0.99 g and 1.10 g and 1.85 g and 2.23 g and 2.81 g and 3.00 g and 3.31 g (2×); in the experiment on SNL rats (0.75 Hour post dosing, 5 mpk IP) it was 1.31 g (2×) and 2.37 g (2×) and 2.81 g and 1.56 g (2×) and 0.99 g; with SNL rats (1.5 Hour post dosing, 5 mpk IP), 1.85 g (3×) and 2.37 g and 0.82 g and 2.81 g and 1.56 g and 2.64 g; in the experiment on SNL rats (3 Hour post dosing, 5 mpk IP), 2.81 g and 6.74 g and 7.91 g and 3.33 g and 5.15 g and 4.34 g and 5.77 g and 3.31 g. In addition, the analgesia effect result with SNL rats (3 hour time point, 5 mpk IP) is “significant analgesia effect”. The “neuropathic pain sensitivity / mechanical hypersensitivity (mechanical allodynia)” value in the experiment with SNL rats is reported as “reduce neuropathic pain sensitivity”; in the experiment with SNL rats (listed as isoguvacine) it was “reduce tactile over-reactivity (mechanical allodynia)”. In addition, the “50% g Threshold, group Mean” value in the experiment with SNL rats (setting [3]) was determined as 2.32 g; with SNL rats (setting [4]) it was 1.78 g; in the experiment on SNL rats (setting [5]) it was 1.97 g.
